Reference: US8686044B2, “Amide derivative, pest control agent containing the amide derivative, and use of the amide derivative” (Mitsui Chemicals Agro, Inc., priority 2008, dated 2014)

Tests used:
Format in all cases: in vivo
[1] = test system: Musca domestica; assay: Pesticidal test against Musca domestica (petri dish dry film); details: 24 h, concentration 100 ppm, female adults, examined after 1 day, 25° C., read-out: pesticidal rate
Protocol: Pesticidal Test against Musca domestica
1 ml of an acetone solution in which a test compound had been prepared at a predetermined concentration was added dropwise to a petri dish having a diameter of 9 cm, and air-dried, and then the female adults of Musca domestica were released and the petri dish was capped. They were left to stand in a thermostatic chamber at 25° C., and the numbers of the living pests and the dead pests were examined after 1 day. The test was carried out with five larvae per group in two replicates.

[2] = test system: Plutella xylostella; assay: Pesticidal test against Plutella xylostella (cabbage leaf dip); details: foliar, 144 h, 2-stage larvae, examined after 6 days, 25° C., read-out: pesticidal rate; for pest or weed control at 1 ppm: concentration 1 ppm; for pest or weed control at 10 ppm: concentration 10 ppm
Outline: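 Cabbage leaf pieces dipped 30 s in test solution at a predetermined concentration, air-dried, then offered to 2nd-instar larvae, five per group in duplicate. Held at 25° C; living and dead larvae counted after 6 days.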

[3] = test system: Spodoptera litura; assay: Pesticidal test against Spodoptera litura (cabbage leaf dip); details: foliar, 144 h, 2-stage larvae, examined after 6 days, 25° C., read-out: pesticidal rate; for pest or weed control at 1 ppm: concentration 1 ppm
Outline: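 Cabbage leaf pieces dipped 30 seconds in compound solution at a predetermined concentration and air-dried, then offered to second-stage larvae, five per group in two replicates. Held at 25° C. Living and dead larvae counted after 6 days.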

[4] = test system: Laodelphax striatellus; assay: Pesticidal test against Laodelphax striatellus (rice seedling spray); details: 144 h, concentration 100 ppm, 3-stage larvae, examined after 6 days, 25° C., read-out: pesticidal rate
Outline: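 Rice seedlings sprayed with 2.5 ml acetone solution of compound at a predetermined concentration, air-dried, then infested with third-stage Laodelphax striatellus larvae in capped water-containing tubes at 25 °C. Living and dead insects counted after 6 days; ten larvae per group, two replicates.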

CN(C(=O)OCC(Cl)(Cl)Cl)c1cccc(C(=O)Nc2c(Br)cc(C(F)(C(F)(F)F)C(F)(F)F)cc2C(F)(F)F)c1F [12-777]
≥ 70%: pest or weed control at 100 ppm [1] | pest or weed control at 1 ppm [2] | pest or weed control at 1 ppm [3]

O=C(Nc1c(I)cc(C(F)(C(F)(F)F)C(F)(F)F)cc1C(F)(F)F)c1cccc(NC(=O)c2ccc(F)cc2Br)c1 [6-453]
≥ 70%: pest or weed control at 100 ppm [1] | pest or weed control at 1 ppm [2] | pest or weed control at 1 ppm [3]

CN(C(=O)c1ccc(F)cc1Cl)c1cccc(C(=O)Nc2c(I)cc(C(F)(C(F)(F)F)C(F)(F)F)cc2C(F)(F)F)c1 [7-449]
≥ 70%: pest or weed control at 100 ppm [1] | pest or weed control at 1 ppm [2] | pest or weed control at 1 ppm [3]

O=C(Nc1c(I)cc(C(F)(C(F)(F)F)C(F)(F)F)cc1C(F)(F)F)c1cccc(NC(=O)c2ccccc2Cl)c1 [6-428]
≥ 70%: pest or weed control at 100 ppm [1] | pest or weed control at 1 ppm [2] | pest or weed control at 1 ppm [3]

CN(C(=O)c1ccccc1Cl)c1cccc(C(=O)Nc2c(I)cc(C(F)(C(F)(F)F)C(F)(F)F)cc2C(F)(F)F)c1 [7-428]
≥ 70%: pest or weed control at 100 ppm [1] | pest or weed control at 1 ppm [2] | pest or weed control at 1 ppm [3]

CN(C(=O)c1ccccc1)c1cccc(C(=O)Nc2c(Br)cc(C(F)(C(F)(F)F)C(F)(F)F)cc2C(F)(F)F)n1 [17-1103, N-(2-bromo-4-(perfluoropropan-2-yl)-6-(trifluoromethyl)phenyl)-6-(N-methylbenzamide)picolinamide]
≥ 70%: pest or weed control at 100 ppm [1] | pest or weed control at 10 ppm [2] | pest or weed control at 10 ppm ([3]; concentration 10 ppm)

O=C(Nc1c(I)cc(C(F)(C(F)(F)F)C(F)(F)F)cc1C(F)(F)F)c1cccc(NC(=O)c2cc(F)c(F)cc2Cl)c1 [6-450]
≥ 70%: pest or weed control at 100 ppm [1] | pest or weed control at 1 ppm [2] | pest or weed control at 1 ppm [3]

CN(C(=O)c1ccc(Cl)nc1)c1cccc(C(=O)Nc2c(Br)cc(C(F)(C(F)(F)F)C(F)(F)F)cc2C(F)(F)F)c1 [7-311]
≥ 70%: pest or weed control at 1 ppm [2] | pest or weed control at 100 ppm [4] | pest or weed control at 1 ppm [3]

CN(C(=O)c1cccc([N+](=O)[O-])c1)c1cccc(C(=O)Nc2c(Br)cc(C(F)(C(F)(F)F)C(F)(F)F)cc2C(F)(F)F)c1 [7-285]
≥ 70%: pest or weed control at 10 ppm [2] | pest or weed control at 100 ppm [4] | pest or weed control at 1 ppm [3]

CN(C(=O)c1ccc(F)cc1)c1cccc(C(=O)Nc2c(I)cc(C(F)(C(F)(F)F)C(F)(F)F)cc2C(F)(F)F)c1 [7-427]
≥ 70%: pest or weed control at 1 ppm [2] | pest or weed control at 100 ppm [4] | pest or weed control at 1 ppm [3]

O=C(Nc1cccc(C(=O)Nc2c(I)cc(C(F)(C(F)(F)F)C(F)(F)C(F)(F)F)cc2I)c1)c1ccc(F)cc1 (stereo not drawn) [6-5904]
≥ 70%: pest or weed control at 1 ppm [2] | pest or weed control at 100 ppm [4] | pest or weed control at 1 ppm [3]

O=C(Nc1c(Cl)cc(C(F)(C(F)(F)F)C(F)(F)F)cc1C(F)(F)F)c1cccc(NC(=O)c2cccnc2Cl)c1 [6-147]
≥ 70%: pest or weed control at 1 ppm [2] | pest or weed control at 100 ppm [4] | pest or weed control at 1 ppm [3]

O=C(Nc1cccc(C(=O)Nc2c(Br)cc(C(F)(C(F)(F)F)C(F)(F)C(F)(F)F)cc2Br)c1F)c1ccc(Cl)nc1 (stereo not drawn) [6-1225]
≥ 70%: pest or weed control at 1 ppm [2] | pest or weed control at 100 ppm [4] | pest or weed control at 1 ppm [3]

O=C(Nc1c(Br)cc(C(F)(C(F)(F)F)C(F)(F)F)cc1C(F)(F)F)c1cccc(NC(=O)c2cccnc2I)c1 [6-306]
≥ 70%: pest or weed control at 1 ppm [2] | pest or weed control at 100 ppm [4] | pest or weed control at 1 ppm [3]

N#Cc1ccc(C(=O)Nc2c(Br)cc(C(F)(C(F)(F)F)C(F)(F)F)cc2C(F)(F)F)cc1NC(=O)c1ccccc1 [1-627, 3-benzamide-N-(2-bromo-4-(perfluoropropan-2-yl)-6-(trifluoromethyl)phenyl)-4-cyanobenzamide]
≥ 70%: pest or weed control at 1 ppm [2] | pest or weed control at 100 ppm [4] | pest or weed control at 1 ppm [3]

O=C(Nc1cccc(C(=O)Nc2c(I)cc(C(F)(C(F)(F)F)C(F)(F)C(F)(F)F)cc2I)c1F)c1cccc(F)c1 (stereo not drawn) [6-1340]
≥ 70%: pest or weed control at 1 ppm [2] | pest or weed control at 100 ppm [4] | pest or weed control at 1 ppm [3]

N#Cc1cccc(C(=O)Nc2cccc(C(=O)Nc3c(Br)cc(C(F)(C(F)(F)F)C(F)(F)C(F)(F)F)cc3Br)c2)c1 (stereo not drawn) [6-45]
≥ 70%: pest or weed control at 1 ppm [2] | pest or weed control at 100 ppm [4] | pest or weed control at 1 ppm [3]

CN(C(=O)c1cccc(F)c1)c1cccc(C(=O)Nc2c(Br)cc(C(F)(C(F)(F)F)C(F)(F)C(F)(F)F)cc2Br)c1 (stereo not drawn) [7-5906]
≥ 70%: pest or weed control at 1 ppm [2] | pest or weed control at 100 ppm [4] | pest or weed control at 1 ppm [3]

O=C(Nc1c(Br)cc(C(F)(C(F)(F)F)C(F)(F)F)cc1C(F)(F)F)c1cccc(NC(=O)c2cccnc2Cl)c1 [6-304]
≥ 70%: pest or weed control at 1 ppm [2] | pest or weed control at 100 ppm [4] | pest or weed control at 1 ppm [3]

CN(C(=O)c1ccc(Cl)nc1)c1cccc(C(=O)Nc2c(Br)cc(C(F)(C(F)(F)F)C(F)(F)F)cc2Br)c1F [7-1147]
≥ 70%: pest or weed control at 1 ppm [2] | pest or weed control at 100 ppm [4] | pest or weed control at 1 ppm [3]

CN(C(=O)c1cccc(F)c1)c1cccc(C(=O)Nc2c(I)cc(C(F)(C(F)(F)F)C(F)(F)C(F)(F)F)cc2I)c1 (stereo not drawn) [7-5904]
≥ 70%: pest or weed control at 1 ppm [2] | pest or weed control at 100 ppm [4] | pest or weed control at 1 ppm [3]

O=C(Nc1cccc(C(=O)Nc2c(I)cc(C(F)(C(F)(F)F)C(F)(F)F)cc2I)c1F)c1ccccc1F [6-1261]
≥ 70%: pest or weed control at 1 ppm [2] | pest or weed control at 100 ppm [4] | pest or weed control at 1 ppm [3]

CN(C(=O)c1cccnc1Cl)c1cccc(C(=O)Nc2c(C(F)(F)F)cc(C(F)(C(F)(F)F)C(F)(F)F)cc2C(F)(F)F)c1 [7-840]
≥ 70%: pest or weed control at 1 ppm [2] | pest or weed control at 100 ppm [4] | pest or weed control at 1 ppm [3]

CN(C(=O)c1c(F)cccc1F)c1cccc(C(=O)Nc2c(Br)cc(C(F)(C(F)(F)F)C(F)(F)C(F)(F)F)cc2Br)c1 (stereo not drawn) [7-47]
≥ 70%: pest or weed control at 1 ppm [2] | pest or weed control at 100 ppm [4] | pest or weed control at 1 ppm [3]

CN(C(=O)c1cccnc1Cl)c1cccc(C(=O)Nc2c(Cl)cc(C(F)(C(F)(F)F)C(F)(F)F)cc2Cl)c1F [7-984]
≥ 70%: pest or weed control at 1 ppm [2] | pest or weed control at 100 ppm [4] | pest or weed control at 1 ppm [3]

CN(C(=O)c1ccccc1)c1cccc(C(=O)Nc2c(Br)cc(C(F)(C(F)(F)F)C(F)(F)C(F)(F)F)cc2Br)c1F (stereo not drawn) [7-1182, N-(2,6-dibromo-4-(perfluorobutan-2-yl)phenyl)-2-fluoro-3-(N-methylbenzamide)benzamide]
≥ 70%: pest or weed control at 1 ppm [2] | pest or weed control at 100 ppm [4] | pest or weed control at 1 ppm [3]

CN(C(=O)c1ccccc1)c1cccc(C(=O)Nc2c(Br)cc(C(F)(C(F)(F)F)C(F)(F)F)cc2I)c1F [7-5902]
≥ 70%: pest or weed control at 1 ppm [2] | pest or weed control at 100 ppm [4] | pest or weed control at 1 ppm [3]

O=C(Nc1cccc(C(=O)Nc2c(Br)cc(C(F)(C(F)(F)F)C(F)(F)C(F)(F)F)cc2C(F)(F)F)c1F)c1ccccc1F (stereo not drawn) [6-1653]
≥ 70%: pest or weed control at 1 ppm [2] | pest or weed control at 100 ppm [4] | pest or weed control at 1 ppm [3]

O=C(Nc1c(Br)cc(C(F)(C(F)(F)F)C(F)(F)F)cc1C(F)(F)F)c1ccc(F)c(NC(=O)c2cccnc2Cl)c1 [6-3384]
≥ 70%: pest or weed control at 1 ppm [2] | pest or weed control at 100 ppm [4] | pest or weed control at 1 ppm [3]

O=C(Nc1c(Br)cc(C(F)(C(F)(F)F)C(F)(F)F)cc1C(F)(F)F)c1cccc(NC(=O)c2c(F)cccc2F)c1 [6-290]
≥ 70%: pest or weed control at 1 ppm [2] | pest or weed control at 100 ppm [4] | pest or weed control at 1 ppm [3]

CN(C(=O)c1ccccc1)c1cc(C(=O)Nc2c(Br)cc(C(F)(C(F)(F)F)C(F)(F)F)cc2C(F)(F)F)ccc1F [7-3348]
≥ 70%: pest or weed control at 1 ppm [2] | pest or weed control at 100 ppm [4] | pest or weed control at 1 ppm [3]
